Target: human σ2 receptor (TMEM97) (Homo sapiens, UniProt Q5BJF2)
Assay: biochemical
Type: Expi293 membranes
Details: read-out: % of control remaining

Chain of human σ2 receptor (TMEM97) (Q5BJF2 whole entry): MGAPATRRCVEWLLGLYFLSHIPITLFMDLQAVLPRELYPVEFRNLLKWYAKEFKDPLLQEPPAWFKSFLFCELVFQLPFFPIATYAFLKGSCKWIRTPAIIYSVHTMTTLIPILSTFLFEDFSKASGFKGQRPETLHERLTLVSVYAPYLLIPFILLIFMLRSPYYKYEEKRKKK

remaining activity at 1 µM	SMILES
101%	Cc1cc(C(=O)N2CC[C@H](NCc3cccc(Cl)c3F)C2)ncn1 [ZINC001018723708]
99.6%	O=C([C@H]1Cc2ccccc21)N1CC[C@H](NCc2ccncc2Cl)C1 [ZINC001019309159]
85%	Cc1ccc(C(=O)NC[C@H]2CN(C(=O)[C@@H]3CCN(C)C3)CCCO2)o1 [ZINC001019525589]
102%	Cc1nc(CN[C@H]2C[C@H](NC(=O)Cn3ncn(C)c3=O)C2)cs1 [ZINC001020327691]
86.2%	Cc1ccccc1CN[C@H]1C[C@H](NC(=O)c2cn(C)c(=O)nc2O)C1 [ZINC001021041334]
106%	Cn1cc(CN[C@H]2C[C@H](NC(=O)c3cccc(C(N)=O)n3)C2)cn1 [ZINC001021109191]
89.3%	C[C@@H](C(N)=O)N1CCC[C@H](CNC(=O)c2nn(C)c3c2CCCC3)C1 [ZINC001023604137]
95.7%	Cn1nccc1C(=O)N1C[C@@H](O)[C@H](NC(=O)c2c[nH]nc2C2CC2)C1 [ZINC001025444165]
109%	Cc1cc(C(=O)NC[C@@H]2CCN(CC(=O)Nc3cnccn3)C2)on1 [ZINC001028403773]
115%	Cc1nc(O)[nH]c1C(=O)NC[C@H]1CCN([C@H](C)C(=O)NC2CC2)C1 [ZINC001028614115]
92.8%	Cc1ccnc2nc(C(=O)NCC3CN(CCCC4CCC4)C3)nn12 [ZINC001032169623]
24.6%	CCN(C(=O)c1cnccn1)[C@@H]1CCN(CC2CCCCCC2)C1 [ZINC001033739722]
43.3%	CCN(C(=O)c1ccnc(C2CC2)n1)[C@H]1CCN(CC2CCC2)C1 [ZINC001033973784]
119%	CCc1ocnc1C(=O)NC[C@H]1CN(C[C@@H](C)CC)CCO1 [ZINC001035320653]
115%	C[C@@H](O)CN1CC[C@H](C2CCN(C(=O)CN3CCOCC3)CC2)C1 [ZINC001039123057]
100%	COc1ccnc(CN2CCC3(CC2)CCN(C(=O)C(C)C)C3)c1 [ZINC001040612984]
117%	COCCC(=O)N1CC[C@@](O)(CNC(=O)[C@@H]2CCN(C)C2=O)C1 [ZINC001040614201]
98.6%	O=C(NCC1(O)CN(C(=O)CCn2ccnc2)C1)[C@H]1CC=CCC1 [ZINC001041431730]
110%	O=C([C@@H]1CCCN(CC(F)F)C1)N1CC[C@]2(CCN(CCO)C2)C1 [ZINC001041605786]
103%	CN1CC[C@@H](C(=O)N2CC[C@@]3(CCN(Cc4nnn(C)n4)C3)C2)C1 [ZINC001041828396]
102%	CN1CCC[C@H]1C(=O)NCC1(O)CN(C(=O)CCc2ncccn2)C1 [ZINC001042098162]
125%	Cn1nc(C(=O)N2CC(O)(CNC(=O)C3=CCOCC3)C2)ccc1=O [ZINC001042722400]
84.5%	CNC(=O)NCC(=O)N1CC(O)(CNC(=O)c2ccc(F)s2)C1 [ZINC001043696212]
116%	CN1CCCC[C@@H]1C(=O)NCC1(O)CN(C(=O)CCc2cn[nH]c2)C1 [ZINC001043772717]
88.5%	CN(C)c1ccc(C(=O)N2CC(O)(CNC(=O)c3cnn[nH]3)C2)nc1 [ZINC001043817104]
114%	CCC[C@@H]1C[C@H]1C(=O)NCC1(O)CN(C(=O)C2CN(C(C)=O)C2)C1 [ZINC001046261579]
101%	Cc1nc[nH]c1C(=O)N1CC(O)(CNC(=O)CN2CC[C@H](C)C2)C1 [ZINC001046685471]
104%	C[C@H](C(=O)NCC1(O)CN(C(=O)Cn2ncnn2)C1)C1CCCC1 [ZINC001046914841]

remaining activity at 1 µM	SMILES
110%	NC(=O)[C@@H]1CCC[C@@H](C(=O)NCC2(O)CN(C(=O)C3CCC3)C2)C1 [ZINC001046939982]
107%	CC(C)n1cc(C(=O)N2CC(O)(CNC(=O)c3ccnnc3)C2)nn1 [ZINC001047126822]
61.7%	Cc1ccc(CN2C[C@@H]3CN(C(=O)c4cccn4C)C[C@@H]3C2)cc1C [ZINC001048683995]
105%	Cc1ncc(CNC[C@@H]2CN(C(=O)c3cn(C)cn3)CCO2)cn1 [ZINC001051553588]
132%	O=C(Cn1cnnn1)N[C@H]1CCN(c2ncnc3c2CCC3)C[C@H]1O [ZINC001051633080]
104%	CCN1CC[C@H](N2CCC[C@@H](NC(=O)c3ccc(O)nn3)CC2)C1=O [ZINC001052175095]
104%	COCCn1cc(C(=O)N2C[C@@H](C)[C@@H](NCc3ccccn3)C2)nn1 [ZINC001054647418]
103%	Cc1cnc(C(=O)N2C[C@H]3CN(C(=O)CN(C)C(C)C)C[C@H]3C2)cn1 [ZINC001055138151]
98.5%	CC(=O)NCCN1CCC(NC(=O)c2c(Cl)n[nH]c2C)CC1 [ZINC001055479120]
95.3%	O=C(N[C@H]1CCN(c2cc(Cl)c(O)nn2)C1)c1c[nH]c(=O)cn1 [ZINC001058532763]
93.6%	Cn1nnc2c(N3C[C@H]4CC[C@@H](C3)N4C(=O)c3cc[nH]n3)ncnc21 [ZINC001058732454]
76%	O=C(NCC[C@@H]1CCN(C(=O)c2ccncn2)C1)c1c[nH]c(=O)cn1 [ZINC001060201073]
62.6%	CN1CCC[C@@H]1C(=O)NC[C@H]1CCCN1c1ncnc2scnc12 [ZINC001061317651]
91.3%	CN1CCC(C(=O)NC[C@@H]2CCN(c3ncc(Cl)cn3)C2)CC1 [ZINC001061620290]
146%	CN(C)C(=O)c1cncc(N[C@H]2CC[C@H](NC(=O)C(N)=O)CC2)n1 [ZINC001063398490]
57.8%	Cn1cc(C(=O)N2CCO[C@@H](CNC(=O)C=C3CCC3)C2)ncc1=O [ZINC001065434920]
104%	O=C(c1cccnn1)N1CCC(O)(CNc2cncc(Cl)n2)CC1 [ZINC001067478391]
89.9%	C[C@@H]1CN(C(=O)Cc2cncnc2)C[C@H]1NC(=O)CCn1cccn1 [ZINC001071984909]
81.8%	CNC(=O)[C@@H](C)N1CCC2(CN(C(=O)c3c[nH]c4nccc-4c3)C2)C1 [ZINC001072835483]
110%	CCc1cc(C(=O)NC[C@H]2CN(CCn3cncn3)CCCO2)no1 [ZINC001073859800]
113%	CN1CC[C@@H](C(=O)NC[C@H]2CN(Cc3csnn3)CCCO2)C1 [ZINC001073886256]
89.6%	O=C(C[C@H]1C=CCC1)NCC1(O)CCN(C(=O)c2cncnc2)CC1 [ZINC001074556982]
109%	NC(=O)C(=O)N1CCC(O)(CNC(=O)[C@H]2CCCCC2(F)F)CC1 [ZINC001074702922]
16.5%	Cc1c(F)cccc1C(=O)N[C@@H]1CN(CCC2CCCCC2)C[C@H]1O [ZINC001077034834]
111%	C[C@@H](CCNC(=O)C1(CN(C)C)CC1)NC(=O)c1ncccc1O [ZINC001078073018]
99.4%	CC[C@@H]1[C@@H](NC(=O)Cc2ccc(C)cc2)CCN1C[C@@H]1CCOC1 [ZINC001087646081]
132%	Cc1ccoc1CC(=O)N1C[C@H]2CCN(CC(=O)N(C)C)C[C@H]2C1 [ZINC001088099598]
